Experimental data: patent US6737383B1, “Herbicidal oxadiazolidines” (priority 1999, dated 2004)

Tests used:
soybean = assay: Test B pre/postemergence soybean; assay type: in vivo, Glycine max
Summary of the method: (§1)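 Herbicidal effect was estimated by eye on a ten-point control scale after plants spent twelve to sixteen days in a greenhouse following soil or foliar treatment. Foliar sprays targeted plants at one to four leaves; all doses were formulated in a non-phytotoxic solvent with surfactant.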

purple nutsedge = assay: Test B pre/postemergence purple nutsedge; assay type: in vivo, Cyperus rotundus
Summary of the method: as §1

duck salad = assay: Test B flood test duck salad; assay type: in vivo, Heteranthera limosa; conditions: for Plant response rating, Ducksalad (0 to 10 scale, 0 is no effect, 10 is complete control) / Ducksalad plant response rating (0 to 10 scale, 0 is no effect, 10 is complete control): visual evaluation after twelve to sixteen days; for Ducksalad plant response rating (0 to 10 scale, 0 is no effect, 10 is complete control): under heading Pre-emergence
Summary of the method: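 Plants were grown to the 2-leaf stage before treatment with test chemical, then held in a greenhouse for twelve to sixteen days. Injury was visually rated against untreated controls on a 0–10 scale, where 0 is no effect and 10 is complete control.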

wheat = assay: Test B pre/postemergence wheat; assay type: in vivo, Triticum aestivum
Summary of the method: as §1

[1] = Postemergence, Rate 250 g/ha, scale 0 to 10, 0 is no effect, 10 is complete control
[2] = Postemergence, Rate 500 g/ha, scale of 0 to 10 where 0 is no effect and 10 is complete control
[3] = Preemergence, Rate 62 g/ha, scale 0 to 10 (0 no effect, 10 complete control)
[4] = Preemergence, Rate 125 g/ha, scale of 0 to 10 where 0 is no effect and 10 is complete control
[5] = Preemergence, Rate 250 g/ha, scale 0 to 10, 0 is no effect, 10 is complete control
[6] = Preemergence, Rate 500 g/ha, scale 0 to 10, 0 is no effect, 10 is complete control
[7] = Rate 62 g/ha, Postemergence, scale of 0 to 10 where 0 is no effect and 10 is complete control
[8] = Rate 62 g/ha, flood test species, Pre-emergence
[9] = Rate 125 g/ha, flood test species
[10] = Rate 250 g/ha, Pre-emergence, flood-test species, scale 0 to 10, 0 is no effect, 10 is complete control
[11] = Rate 500 g/ha, Pre-emergence, flood test species, scale 0 to 10 (0 no effect, 10 complete control)
[12] = Rate 125 g/ha, Postemergence, scale 0 to 10, 0 is no effect, 10 is complete control
[13] = Postemergence section (flood test species), Rate 500 g/ha, scale of 0 to 10 where 0 is no effect and 10 is complete control
[14] = Rate 62 g/ha, Postemergence (flood test species), scale of 0 to 10 where 0 is no effect and 10 is complete control
[15] = Rate 125 g/ha, Postemergence section (flood test species), scale 0 to 10, 0 is no effect, 10 is complete control
[16] = Postemergence, Rate 250 g/ha, scale 0 to 10
[17] = Postemergence block (flood test species), Rate 250 g/ha, scale 0 to 10
[18] = Rate 62 g/ha, Postemergence, scale 0 to 10, 0 no effect, 10 complete control
[19] = Postemergence, Rate 1000 g/ha, scale 0 to 10 (0 no effect, 10 complete control)
[20] = Rate 1000 g/ha, Preemergence, scale 0 to 10 (0 no effect, 10 complete control)

SMILES | Soybean plant response rating (soybean; [2]) | Plant response rating, Soybean (soybean; [3]) | Plant response rating, Soybean (soybean; [4]) | Soybean plant response rating (soybean; [5]) | Soybean plant response rating (soybean; [6]) | Nutsedge plant response rating (purple nutsedge; [2]) | Plant response rating, Nutsedge (purple nutsedge; [3]) | Plant response rating, Nutsedge (purple nutsedge; [4]) | Nutsedge plant response rating (purple nutsedge; [5]) | Nutsedge plant response rating (purple nutsedge; [6]) | Wheat plant response rating (wheat; [2]) | Plant response rating, Wheat (wheat; [3]) | Plant response rating, Wheat (wheat; [4]) | Wheat plant response rating (wheat; [5]) | Wheat plant response rating (wheat; [6]) | Soybean plant response rating (soybean; [12]) | Nutsedge plant response rating (purple nutsedge; [12]) | Ducksalad plant response rating (duck salad; [13]) | Ducksalad plant response rating (duck salad; [15]) | Wheat plant response rating (wheat; [12]) | further results
CC(C)N(C(=O)n1oc(=O)n(CC2CCC2)c1=O)c1ccc(F)cc1 [Compound 403] | 8 | 0 | 0 | 0 | 2 | 0 | 0 | 0 | 0 | 0 | 4 | 0 | 0 | 0 | 0 | – | – | – | – | – | Plant response rating, Soybean (soybean; [1]): 6; Soybean plant response rating (soybean; [7]): 4; Plant response rating, Nutsedge (purple nutsedge; [1]): 0; Nutsedge plant response rating (purple nutsedge; [7]): 0; Plant response rating, Ducksalad (0 to 10 scale, 0 is no effect, 10 is complete control) (duck salad; [8]): 0; Ducksalad plant response rating (0 to 10 scale, 0 is no effect, 10 is complete control) (duck salad; [9]): 0; Ducksalad plant response rating (duck salad; [10]): 0; Ducksalad plant response rating (duck salad; [11]): 0; Wheat plant response rating (wheat; [7]): 0
Cc1nc(Cl)sc1C(C)n1c(=O)on(C(=O)N(c2ccccc2)C(C)C)c1=O (stereo not shown) [Compound 407] | 2 | 0 | 0 | 0 | 0 | 0 | 0 | 0 | 0 | 0 | 0 | 0 | 0 | 0 | 0 | – | – | – | – | – | Plant response rating, Soybean (soybean; [1]): 2; Plant response rating, Nutsedge (purple nutsedge; [1]): 0; Plant response rating, Ducksalad (0 to 10 scale, 0 is no effect, 10 is complete control) (duck salad; [8]): 0; Ducksalad plant response rating (0 to 10 scale, 0 is no effect, 10 is complete control) (duck salad; [9]): 0; Ducksalad plant response rating (duck salad; [10]): 0; Ducksalad plant response rating (duck salad; [11]): 0
CC(C)N(C(=O)n1oc(=O)n(C(CF)CF)c1=O)c1ccccc1 [Compound 421] | 8 | 4 | 4 | 5 | 10 | 2 | 0 | 0 | 0 | 0 | 7 | 4 | 4 | 7 | 9 | 6 | 0 | 2 | 0 | 1 | Plant response rating, Soybean (soybean; [1]): 7; Plant response rating, Nutsedge (purple nutsedge; [1]): 0; Ducksalad plant response rating (duck salad; [14]): 0; Plant response rating, Ducksalad (duck salad; flood test species, listed under Postemergence, Rate 250 g/ha, scale 0 to 10, 0 is no effect, 10 is complete control): 2
C=C[Si](C)(C)Cn1c(=O)on(C(=O)N(c2ccc(Cl)cc2)C(C)C)c1=O [Compound 425] | 3 | 0 | 0 | 0 | 0 | 0 | 0 | 0 | 3 | 5 | 6 | 2 | 2 | 3 | 4 | 1 | 0 | 0 | 0 | 0 | Soybean plant response rating (soybean; [16]): 2; Nutsedge plant response rating (purple nutsedge; [16]): 0; Ducksalad plant response rating (duck salad; [17]): 0; Ducksalad plant response rating (duck salad; [14]): 0; Wheat plant response rating (wheat; [16]): 3
CCN(C(=O)n1oc(=O)n(C2CCCCCC2)c1=O)C1CCCCC1 [Compound 429] | 3 | 0 | 0 | 0 | 0 | 0 | 0 | 0 | 0 | 0 | 0 | 0 | 0 | 0 | 0 | 2 | 0 | 6 | 2 | 0 | Soybean plant response rating (soybean; [16]): 2; Nutsedge plant response rating (purple nutsedge; [16]): 0; Ducksalad plant response rating (duck salad; [17]): 6; Ducksalad plant response rating (duck salad; [14]): 0; Wheat plant response rating (wheat; [16]): 0
CC(C)N(C(=O)n1oc(=O)n(CCC#N)c1=O)c1ccccc1 [Compound 436] | 4 | 0 | 0 | 0 | 0 | 3 | 0 | 0 | 0 | 5 | 7 | 0 | 0 | 0 | 5 | 0 | 0 | 0 | 0 | 0 | Soybean plant response rating (soybean; [16]): 0; Soybean plant response rating (soybean; [18]): 0; Nutsedge plant response rating (purple nutsedge; [16]): 0; Nutsedge plant response rating (purple nutsedge; [18]): 0; Ducksalad plant response rating (duck salad; [17]): 0; Ducksalad plant response rating (duck salad; Rate 62 g/ha, Postemergence (flood test), scale 0 to 10, 0 no effect, 10 complete control): 0; Wheat plant response rating (wheat; [16]): 0; Wheat plant response rating (wheat; [18]): 0
CCOP(=O)(OCC)C(C)n1c(=O)on(C(=O)N(c2ccccc2)C(C)C)c1=O (stereo not shown) [Compound 448] | 5 | – | 0 | 0 | 0 | 0 | – | 0 | 0 | 0 | 0 | – | 0 | 0 | 0 | 1 | 0 | – | – | 0 | Soybean plant response rating (soybean; [16]): 2; Soybean plant response rating (soybean; [19]): 6; Plant response rating, Soybean (soybean; [20]): 0; Nutsedge plant response rating (purple nutsedge; [16]): 0; Nutsedge plant response rating (purple nutsedge; [19]): 0; Plant response rating, Nutsedge (purple nutsedge; [20]): 0; Ducksalad plant response rating (duck salad; Pre-emergence, Rate 1000 g/ha, scale 0 to 10 (0 no effect, 10 complete control)): 0; Ducksalad plant response rating (0 to 10 scale, 0 is no effect, 10 is complete control) (duck salad; [9]): 0; Ducksalad plant response rating (duck salad; Rate 250 g/ha, Pre-emergence (flood test species), scale 0 to 10, 0 is no effect, 10 is complete control): 0; Ducksalad plant response rating (duck salad; [11]): 0; Wheat plant response rating (wheat; [16]): 0; Wheat plant response rating (wheat; [19]): 0; Plant response rating, Wheat (wheat; [20]): 0
